According to patent publication US20260109712A1, “RIFAMYCINS FOR NONTUBERCULOUS MYCOBACTERIA” (priority 2022, published 2026):
Converted amounts (≈) assume the structure as drawn.

Experiments:
[1] = tested on: M. abscessus ATCC 19977; experiment: MIC assay in 96-well plate format, wild-type strain; type: cell-based, Mycobacterium abscessus; conditions: Table 10
How it was run: (§1)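 Two-fold, ten-point dilutions in 7H9 with 2% DMSO; mid-log culture diluted to OD600=0.1 (1×10^7 CFU/mL). Incubated 3 days at 37 °C, shaking 110 RPM; growth = Day 3 minus Day 0 OD600, expressed as percentage of drug-free growth and plotted against concentration. Two biological replicates.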

[2] = tested on: Δarr M. abscessus; experiment: MIC assay, isogenic arr-deleted strain; type: cell-based, Mycobacterium abscessus; conditions: Table 10
How it was run: as §1

[3] = Plasma protein binding assay (rapid equilibrium dialysis); type: in vitro ADME
How it was run: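 Rapid equilibrium dialysis ran 4 h at 37° C (300 RPM) with compound-spiked plasma (10,000 ng/mL) on one side and PBS on the other. Each side was then mixed 1:1 […] to equalise matrix before LC-MS/MS quantification.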

[4] = tested on: Mycobacterium abscessus; experiment: MIC against Mycobacterium abscessus (strain not given); type: cell-based; conditions: Table 13; read-out: Mab MIC

CO[C@H]1/C=C/O[C@@]2(C)Oc3c(C)c(O)c4c(c3C2=O)C2=NC3(CCN(CC(C)C)CC3)NC2=C(NC(=O)/C(C)=C/C=C/[C@H](C)[C@H](O)[C@@H](C)[C@@H](O)[C@@H](C)[C@H](OC(=O)c2ccc(F)cc2)[C@@H]1C)C4=O [UMN11]
MICWT [1]: 0.13 µM
MICΔorr [2]: 0.069 µM
ƒu [3]: 0.02%
plasma unbound fraction [3]: 0.02%
MIC [4]: 0.13 µM (≈ 0.121 µg/mL)

CO[C@H]1/C=C/O[C@@]2(C)Oc3c(C)c(O)c4c(c3C2=O)C2=NC3(CCN(CC(C)C)CC3)NC2=C(NC(=O)/C(C)=C/C=C/[C@H](C)[C@H](O)[C@@H](C)[C@@H](O)[C@@H](C)[C@H](OC(=O)c2ccc(Cl)cc2)[C@@H]1C)C4=O [UMN12]
MICWT [1]: 0.13 µM
MICΔorr [2]: 0.22 µM
ƒu [3]: 0.01%
plasma unbound fraction [3]: 0.01%
MIC [4]: 0.13 µM (≈ 0.123 µg/mL)

CO[C@H]1/C=C/O[C@@]2(C)Oc3c(C)c(O)c4c(c3C2=O)C2=NC3(CCN(CC(C)C)CC3)NC2=C(NC(=O)/C(C)=C/C=C/[C@H](C)[C@H](O)[C@@H](C)[C@@H](O)[C@@H](C)[C@H](OC(=O)c2ccc(C(F)(F)F)cc2)[C@@H]1C)C4=O [UMN13]
MICWT [1]: 0.24 µM
MICΔorr [2]: 0.66 µM
ƒu [3]: 0%
plasma unbound fraction [3]: 0%
MIC [4]: 0.24 µM (≈ 0.235 µg/mL)

CO[C@H]1/C=C/O[C@@]2(C)Oc3c(C)c(O)c4c(c3C2=O)C2=NC3(CCN(CC(C)C)CC3)NC2=C(NC(=O)/C(C)=C/C=C/[C@H](C)[C@H](O)[C@@H](C)[C@@H](O)[C@@H](C)[C@H](OC(=O)c2cccc(-c3ccccc3)c2)[C@@H]1C)C4=O [UMN18]
MICWT [1]: 1.10 µM
MICΔorr [2]: 1.05 µM
ƒu [3]: 0.01%
plasma unbound fraction [3]: 0%
MIC [4]: 1.1 µM (≈ 1.08 µg/mL)

CO[C@H]1/C=C/O[C@@]2(C)Oc3c(C)c(O)c4c(c3C2=O)C2=NC3(CCN(CC(C)C)CC3)NC2=C(NC(=O)/C(C)=C/C=C/[C@H](C)[C@H](O)[C@@H](C)[C@@H](O)[C@@H](C)[C@H](OC(=O)c2cccc(C(F)(F)F)c2)[C@@H]1C)C4=O [UMN19]
MICWT [1]: 0.48 µM
MICΔorr [2]: 0.36 µM
ƒu [3]: 0%
plasma unbound fraction [3]: 0%
MIC [4]: 0.48 µM (≈ 0.469 µg/mL)

COc1cccc(C(=O)O[C@H]2[C@H](C)[C@H](O)[C@H](C)[C@@H](O)[C@@H](C)/C=C/C=C(\C)C(=O)NC3=C4NC5(CCN(CC(C)C)CC5)N=C4c4c(c(O)c(C)c5c4C(=O)[C@@](C)(O/C=C/[C@H](OC)[C@H]2C)O5)C3=O)c1 [UMN26]
MICWT [1]: 0.13 µM
MICΔorr [2]: 0.13 µM
ƒu [3]: 0.02%
plasma unbound fraction [3]: 0.02%
MIC [4]: 0.13 µM (≈ 0.122 µg/mL)

CO[C@H]1/C=C/O[C@@]2(C)Oc3c(C)c(O)c4c(c3C2=O)C2=NC3(CCN(CC(C)C)CC3)NC2=C(NC(=O)/C(C)=C/C=C/[C@H](C)[C@H](O)[C@@H](C)[C@@H](O)[C@@H](C)[C@H](OC(=O)c2cccc(Cl)c2)[C@@H]1C)C4=O [UMN27]
MICWT [1]: 0.14 µM
MICΔorr [2]: 0.13 µM
ƒu [3]: 0%
plasma unbound fraction [3]: 0%
MIC [4]: 0.14 µM (≈ 0.132 µg/mL)

CO[C@H]1/C=C/O[C@@]2(C)Oc3c(C)c(O)c4c(c3C2=O)C2=NC3(CCN(CC(C)C)CC3)NC2=C(NC(=O)/C(C)=C/C=C/[C@H](C)[C@H](O)[C@@H](C)[C@@H](O)[C@@H](C)[C@H](OC(=O)c2ccc(-c3ccccc3)cc2)[C@@H]1C)C4=O [UMN28]
MICWT [1]: 0.85 µM
MICΔorr [2]: 1.00 µM
ƒu [3]: 0%
plasma unbound fraction [3]: 0%
MIC [4]: 0.85 µM (≈ 0.837 µg/mL)

CO[C@H]1/C=C/O[C@@]2(C)Oc3c(C)c(O)c4c(c3C2=O)C2=NC3(CCN(CC(C)C)CC3)NC2=C(NC(=O)/C(C)=C/C=C/[C@H](C)[C@H](O)[C@@H](C)[C@@H](O)[C@@H](C)[C@H](OC(=O)c2ccncc2)[C@@H]1C)C4=O [UMN47]
MICWT [1]: 0.017 µM
MICΔorr [2]: 0.017 µM
ƒu [3]: 2.0%
plasma unbound fraction [3]: 2.00%
MIC [4]: 0.017 µM (≈ 0.0155 µg/mL)
